Test results taken from patent US6235716A, “Multivalent ligands which modulate angiogenesis” (Children's Medical Center Corporation, priority 1999, dated 2001).
No end group written: not given here.

How the values were obtained:
B16 melanoma tumors = test: Multivalent ligands modulate B16 melanoma tumor growth in mice; assay type: in vivo; conditions: C57BL or CBF1 mice; S.C. injection remote from tumor, 20-30 mg/kg body weight/day for two weeks, started one week after tumor inoculation
Protocol: B16 melanoma cells were injected into 7-8 week old female C57BL mice or CBF1 mice, S.C., 2×10^5 cells per mouse, in 0.1 ml volume. One week after the tumor innoculation, the treatment was started by S.C. injection at sites remote from the tumor of the indicated multivalent ligand at a dose 20-30 mg/kg body weight/day for a period of two weeks. Tumors were measured with a dial-caliper and volumes were determined using the formula: (width)^2×length×0.52. Each group (experimental or control) contained 5-6 mice. FIGS. 6-9 depict changes in mean tumor-volume over time.

[1] = test system: bovine aortic endothelial cells (A19 cells); test: Proliferation of bovine aortic endothelial cells in vitro (methylene blue staining, O.D. 630 nm); assay type: cell-based; conditions: increasing concentrations (μg/ml), 72-80 hours incubation, medium with 1 ng/ml basic fibroblast growth factor; relative to untreated cells
Protocol: The experiments were performed using 96 well, flat bottom, tissue culture microtiter plates. Culture medium was prepared from DMEM, penicillin (100 U/ml), streptomycin (100 μg/ml), glutamine (2 mM), 10% endotoxin free bovine calf serum (Hyclone) and 1 ng/ml of basic fibroblast growth factor (any commericial source).
Bovine aortic endothelial cells (referred to herein as "A19 cells") were obtained by procedures disclosed in Gospodorowicz et al., Proc. Natl. Acad. Sci. USA 73:4120 (1976), the entire teachings of which are incorporated herein by reference. An A19 cell suspension at 25×10^3 cells/ml was prepared in the above described culture medium and distributed 0.160 ml/well (about 4000 endothelial cells/well).
Multivalent ligand peptides Tip-18.40 and Tip-19.40 stock solutions was prepared by diluting a 10 mM solution of the HJ peptide in 100% DMSO with phosphate buffered saline (PBS)containing 0.1% BSA. The concentration of HJ peptide in each stock solution was adjusted to nine times the desired concentration of the HJ peptide in the assay mixture. 0.020 ml of each HJ peptide stock solution was added to the corresponding wells about 2 hours after BCE plating, with six replicates for each concentration. […]
The wells were washed one time with borate buffer (0.1 M, pH 8.5). […] After extracting overnight, the O.D. was read at 630 nm to determine the relative number of cells per well. […]

| Substance | effect on B16 melanoma tumor growth (mean tumor volume over time versus vehicle control) (B16 melanoma tumors) | effect on proliferation of bovine aortic endothelial cells in vitro [1] |
| --- | --- | --- |
| Tip-12.40: four-branch pennant polylysine trimer; four peptides of SEQ ID NO.: 7 (endostatin AHR derivative) attached by covalent bond (Ac-TFRAFLSSRLQDLYSIVRRADG; also: four copies on branched polylysine core) | suppressed tumor growth | – |
| Tip-13.40: four-branch pennant polylysine trimer; four peptides of SEQ ID NO.: 8 (TSP-1 AHR derivative) attached by covalent bond (Ac-AYRWRLSHRPKTGFIRVVMYEG; also: four copies on branched polylysine core) | suppressed tumor growth | – |
| Tip-14.40: four-branch pennant polylysine trimer; four TSP-1/endostatin hybrid peptides of SEQ ID NO.: 3 attached by covalent bond (Ac-TFRAFLSSRLQTGFIRVVMYEG; also: four copies on branched polylysine core) | weak, but statistically significant inhibition | – |
| Tip-15.40: four-branch pennant polylysine trimer; four TSP-1/endostatin hybrid peptides of SEQ ID NO.: 4 attached by covalent bond (Ac-AYRWRLSHRPKDLYSIVRRADG; also: four copies on branched polylysine core) | weak, but statistically significant inhibition | – |
| Tip-16.40: four-branch pennant polylysine trimer; four hybrid peptides of SEQ ID NO.: 10 attached via -Gly-Gly- linker (Ac-AYRWRLSHRPKDLYSIVRRADR; not fully specified; printed as Ac-AYRWRLSHRPKDLYSIVRRADR; also: four copies on polylysine core via Gly-Gly linker) | suppressed tumor growth | – |
| Tip-17.40: four-branch pennant polylysine trimer; four hybrid peptides of SEQ ID NO.: 9 attached via -Gly-Gly- linker (Ac-TAYRWRLSHRPKDLYSIVRRADR; not fully specified; printed as Ac-TAYRWRLSHRPKDLYSIVRRADR; also: four copies on polylysine core via Gly-Gly linker) | promoted tumor growth | – |
| Tip-18.40: four-branch pennant polylysine trimer; four hybrid peptides of SEQ ID NO.: 11 attached via -Gly-Gly- linker (Ac-RWRLSHRPKDLYSIVRRADR; not fully specified; printed as Ac-RWRLSHRPKDLYSIVRRADR; also: four copies on polylysine core via Gly-Gly linker) | suppressed tumor growth | inhibit the proliferation |
| Tip-19.40: four-branch pennant polylysine trimer; four hybrid peptides of SEQ ID NO.: 12 attached via -Gly-Gly- linker (Ac-KDFTAYRWRLSHRPKDLYSIVRRADR; not fully specified; printed as Ac-KDFTAYRWRLSHRPKDLYSIVRRADR; also: four copies on polylysine core via Gly-Gly linker) | suppressed tumor growth | inhibit the proliferation |
